Experimental data taken from patent publication US10059717B2, “Urea compounds containing 3,4-dihydropyrimido[4,5-D]pyrimidin-2(1H)-one skeleton as protein kinase inhibitors” (KOREA INSTITUTE OF SCIENCE AND TECHNOLOGY, priority 2016, dated 2018).

Key:
[1] = system: preclinical leukemia models; conditions: cited from earlier work
[2] = system: cell samples from AML patients with actual NRAS mutants; conditions: cited from earlier work
GCK = target: T1, GCK (Homo sapiens, UniProt Q12851); assay: GCK kinase inhibitory activity; type: biochemical; conditions: read-out: Kinase inhibitory efficacy, GI50 GCK
T1 sequence (Q12851 1-820): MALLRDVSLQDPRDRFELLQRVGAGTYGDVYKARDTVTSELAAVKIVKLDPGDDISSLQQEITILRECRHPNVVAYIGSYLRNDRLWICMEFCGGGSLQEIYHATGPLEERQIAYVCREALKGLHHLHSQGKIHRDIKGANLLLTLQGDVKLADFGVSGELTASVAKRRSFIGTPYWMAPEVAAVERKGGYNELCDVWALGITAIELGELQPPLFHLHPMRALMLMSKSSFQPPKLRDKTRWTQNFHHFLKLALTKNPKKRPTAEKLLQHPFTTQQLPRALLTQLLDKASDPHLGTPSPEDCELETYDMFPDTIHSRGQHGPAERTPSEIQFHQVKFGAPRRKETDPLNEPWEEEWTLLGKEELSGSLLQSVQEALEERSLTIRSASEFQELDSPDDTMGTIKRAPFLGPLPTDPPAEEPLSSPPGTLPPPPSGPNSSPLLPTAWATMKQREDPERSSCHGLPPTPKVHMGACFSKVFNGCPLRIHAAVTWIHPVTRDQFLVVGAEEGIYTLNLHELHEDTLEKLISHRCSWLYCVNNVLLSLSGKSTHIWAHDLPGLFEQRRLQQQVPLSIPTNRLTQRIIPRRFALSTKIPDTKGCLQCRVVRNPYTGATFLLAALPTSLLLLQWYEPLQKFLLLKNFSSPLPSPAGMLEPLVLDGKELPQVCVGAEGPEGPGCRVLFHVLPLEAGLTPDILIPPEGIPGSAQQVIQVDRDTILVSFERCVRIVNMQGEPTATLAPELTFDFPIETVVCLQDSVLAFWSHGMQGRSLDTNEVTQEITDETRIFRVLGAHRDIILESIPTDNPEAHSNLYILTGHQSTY
Procedure: (§1) GI50 values were calculated by measuring the inhibitory efficacy of the compounds of the present invention against both GCK and ACK1 kinases.

ACK1 = ACK1 (Homo sapiens, UniProt Q07912); assay: ACK1 kinase inhibitory activity; type: biochemical; conditions: read-out: Kinase inhibitory efficacy, GI50 ACK1
Sequence of ACK1 (Q07912 whole entry): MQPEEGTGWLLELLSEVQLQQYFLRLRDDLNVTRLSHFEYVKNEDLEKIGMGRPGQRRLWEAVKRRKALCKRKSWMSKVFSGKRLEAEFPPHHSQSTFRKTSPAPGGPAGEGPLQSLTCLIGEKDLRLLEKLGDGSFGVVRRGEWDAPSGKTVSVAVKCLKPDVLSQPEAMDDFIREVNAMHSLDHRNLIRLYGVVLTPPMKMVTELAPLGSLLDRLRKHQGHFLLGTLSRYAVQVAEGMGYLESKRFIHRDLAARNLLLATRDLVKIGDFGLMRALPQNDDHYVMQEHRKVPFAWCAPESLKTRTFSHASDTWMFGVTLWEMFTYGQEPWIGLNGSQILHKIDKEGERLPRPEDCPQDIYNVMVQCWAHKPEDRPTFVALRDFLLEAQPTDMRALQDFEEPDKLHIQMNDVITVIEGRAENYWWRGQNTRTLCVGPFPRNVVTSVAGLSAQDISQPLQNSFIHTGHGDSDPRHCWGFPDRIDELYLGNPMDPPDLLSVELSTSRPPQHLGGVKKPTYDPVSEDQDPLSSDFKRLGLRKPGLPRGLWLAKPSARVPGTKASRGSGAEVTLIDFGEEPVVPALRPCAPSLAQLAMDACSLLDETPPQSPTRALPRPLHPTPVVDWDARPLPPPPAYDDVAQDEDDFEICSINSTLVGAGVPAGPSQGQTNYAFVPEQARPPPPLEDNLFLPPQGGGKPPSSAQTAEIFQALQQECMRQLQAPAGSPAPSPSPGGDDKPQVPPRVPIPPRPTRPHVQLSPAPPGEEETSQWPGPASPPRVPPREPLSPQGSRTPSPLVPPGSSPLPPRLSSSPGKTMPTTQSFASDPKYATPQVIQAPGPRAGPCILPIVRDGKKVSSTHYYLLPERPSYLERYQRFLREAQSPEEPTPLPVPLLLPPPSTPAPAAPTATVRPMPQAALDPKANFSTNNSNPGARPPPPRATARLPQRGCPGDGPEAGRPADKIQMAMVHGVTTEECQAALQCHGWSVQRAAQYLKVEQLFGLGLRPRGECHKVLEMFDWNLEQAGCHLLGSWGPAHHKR
Procedure: as §1

OCI-AML3 (N-Ras Q61L) = assay: Proliferation inhibitory activity, OCI-AML3; type: cell-based; conditions: Homo sapiens, OCI-AML-3; OCI-AML3 (N-Ras Q61L) cell line; read-out: Proliferation inhibitory efficacy (GI50, μM) OCI-AML3 (N-Ras Q61L)
Procedure: (§2) GI50 values were calculated by measuring the proliferation inhibitory efficacy of the compounds of the present invention on mt-NRAS (G12D) Ba/F3, U937 (wt-NRAS) and OCI-AML3 (mt-NRAS) cell lines.
Accordingly, the compounds of the present invention are particularly effective as a therapeutic agent for acute myelogenous leukemia (AML).

U937 (N-Ras WT) = assay: Proliferation inhibitory activity, U937; type: cell-based; conditions: Homo sapiens, U-937; U937 (N-Ras WT) cell line; read-out: Proliferation inhibitory efficacy (GI50, μM) U937 (N-Ras WT)
Procedure: as §2

Ba/F3 (N-Ras G12D) = assay: Proliferation inhibitory activity, Ba/F3; type: cell-based; conditions: Mus musculus, BaF3; Ba/F3 (N-Ras G12D) cell line; read-out: Proliferation inhibitory efficacy (GI50, μM) Ba/F3 (N-Ras G12D)
Procedure: as §2

Row | GI50 (GCK) [nM] | GI50 (ACK1) [nM] | GI50 (OCI-AML3 (N-Ras Q61L)) [µM] | GI50 (U937 (N-Ras WT)) [µM] | GI50 (Ba/F3 (N-Ras G12D)) [µM] | SMILES | inhibitory effects in preclinical leukemia models [1] | efficacy in cell samples from AML patients [2]
1 | – | – | – | – | – | Cc1ccc(Nc2ncc3c(n2)N(C)C(=O)N(c2cc(NC(=O)c4cccc(C(F)(F)F)c4)ccc2C)C3)cn1 [GNF 7] | inhibitory effects in preclinical leukemia models have been observed | exhibited its efficacy
2 | 100 to 300 | < 30 | < 0.5 | ≥ 5 | 0.5 to 3 | Cc1ccc(Nc2ncc3c(n2)N(C)C(=O)N(c2cc(NC(=O)Nc4cccc(Cl)c4Cl)ccc2C)C3)cn1 [Compound No. 6, 1-(2,3-dichlorophenyl)-3-(4-methyl-3-(1-methyl-7-((6-methylpyridin-3-yl)amino)-2-oxo-1,4-dihydropyrimido[4,5-d]pyrimidin-3(2H)-yl)phenyl)urea] | – | –
